Experimental data as given in patent US20150299188A1, “HETEROCYCLIC COMPOUND” (priority 2012, published 2015).

Test system: FLAP (5-lipoxygenase activating protein)
Test: In vitro binding test: displacement of [3H]-7-chloro-3-(5-((3-fluoropyridin-2-yl)methoxy)-2-methylphenyl)-3,4-dihydroquinazolin-2(1H)-one from Sf9 microsome fractions
Design: species or system human and mouse
Settings: Sf9 microsome fractions expressing FLAP; 100% = radioligand binding with 10 μM sodium 3-(3-(tert-butylsulfanyl)-1-(4-chlorobenzyl)-5-isopropyl-1H-indol-2-yl)-2,2-dimethylpropanoate, 0% = DMSO; test compound concentration not given
Summary of the method: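 Sf9 microsomes expressing human or mouse FLAP (2 μg/mL) preincubated with compound 10 min at room temperature, then 120 nM tritiated quinazolinone ligand added for 60 min; buffer 100 mM Tris-HCl pH 7.5 with NaCl, EDTA, DTT, glycerol, Tween20. Bound ligand filtered and counted by scintillation; 10 μM indole propanoate defines 100% inhibition, DMSO 0%.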

SMILES | inhibitory rate (%)
Cn1cc(-c2nccc3c2CN(c2cc4c(cc2Cl)CCC(c2ncccc2F)O4)C(=O)N3)cn1 (stereo not shown) [Example 62, 3-(6-chloro-2-(3-fluoropyridin-2-yl)-3,4-dihydro-2H-chromen-7-yl)-5-(1-methyl-1H-pyrazol-4-yl)-3,4-dihydropyrido[4,3-d]pyrimidin-2(1H)-one] | 100%
Cc1cc2c(c(C)n1)CN(c1cc3c(cc1Cl)CCC(c1ncccc1F)O3)C(=O)N2 (stereo not shown) [Example 63, 3-(6-chloro-2-(3-fluoropyridin-2-yl)-3,4-dihydro-2H-chromen-7-yl)-5,7-dimethyl-3,4-dihydropyrido[4,3-d]pyrimidin-2(1H)-one] | 106%
COc1cccnc1C1CCc2cc(Cl)c(N3Cc4c(ccnc4C4CC4)NC3=O)cc2O1 (stereo not shown) [Example 64, 3-(6-chloro-2-(3-methoxypyridin-2-yl)-3,4-dihydro-2H-chromen-7-yl)-5-cyclopropyl-3,4-dihydropyrido[4,3-d]pyrimidin-2(1H)-one] | 94%
O=C1Nc2c(Cl)cnc(C3CC3)c2CN1c1cc2c(cc1Cl)CCC(c1ncccc1F)O2 (stereo not shown) [Example 65, 8-chloro-3-(6-chloro-2-(3-fluoropyridin-2-yl)-3,4-dihydro-2H-chromen-7-yl)-5-cyclopropyl-3,4-dihydropyrido[4,3-d]pyrimidin-2(1H)-one] | 105%
O=C1Nc2c(ccnc2C(F)(F)F)CN1c1cc2c(cc1Cl)CCC(c1ncccc1F)O2 (stereo not shown) [Example 66, 3-(6-chloro-2-(3-fluoropyridin-2-yl)-3,4-dihydro-2H-chromen-7-yl)-8-(trifluoromethyl)-3,4-dihydropyrido[3,4-d]pyrimidin-2(1H)-one] | 98%
Cc1cc2c(cc1N1Cc3c(ccnc3C(C)C)NC1=O)OC(c1ncccc1F)CC2 (stereo not shown) [Example 67, 3-(2-(3-fluoropyridin-2-yl)-6-methyl-3,4-dihydro-2H-chromen-7-yl)-5-isopropyl-3,4-dihydropyrido[4,3-d]pyrimidin-2(1H)-one] | 104%
O=C1Nc2ccnc(C(F)(F)F)c2CN1c1cc2c(cc1F)CCC(c1ncccc1F)O2 (stereo not shown) [Example 68, 3-(6-fluoro-2-(3-fluoropyridin-2-yl)-3,4-dihydro-2H-chromen-7-yl)-5-(trifluoromethyl)-3,4-dihydropyrido[4,3-d]pyrimidin-2(1H)-one] | 113%
COC(=O)c1cc2c(c(C3CC3)n1)CN(c1cc3c(cc1Cl)CCC(c1ncccc1F)O3)C(=O)N2 (stereo not shown) [Example 70, methyl 3-(6-chloro-2-(3-fluoropyridin-2-yl)-3,4-dihydro-2H-chromen-7-yl)-5-cyclopropyl-2-oxo-1,2,3,4-tetrahydropyrido[4,3-d]pyrimidine-7-carboxylate] | 101%
O=C(O)c1cc2c(c(C3CC3)n1)CN(c1cc3c(cc1Cl)CCC(c1ncccc1F)O3)C(=O)N2 (stereo not shown) [Example 71, 3-(6-chloro-2-(3-fluoropyridin-2-yl)-3,4-dihydro-2H-chromen-7-yl)-5-cyclopropyl-2-oxo-1,2,3,4-tetrahydropyrido[4,3-d]pyrimidine-7-carboxylic acid] | 107%
O=C1Nc2cc(Cl)nc(C3CC3)c2CN1c1cc2c(cc1Cl)CCC(c1ncccc1F)O2 (stereo not shown) [Example 72, 7-chloro-3-(6-chloro-2-(3-fluoropyridin-2-yl)-3,4-dihydro-2H-chromen-7-yl)-5-cyclopropyl-3,4-dihydropyrido[4,3-d]pyrimidin-2(1H)-one] | 104%
O=C1Nc2cc(CO)nc(C3CC3)c2CN1c1cc2c(cc1Cl)CCC(c1ncccc1F)O2 (stereo not shown) [Example 73, 3-(6-chloro-2-(3-fluoropyridin-2-yl)-3,4-dihydro-2H-chromen-7-yl)-5-cyclopropyl-7-(hydroxymethyl)-3,4-dihydropyrido[4,3-d]pyrimidin-2(1H)-one] | 109%
O=C(c1cc2c(c(C3CC3)n1)CN(c1cc3c(cc1Cl)CCC(c1ncccc1F)O3)C(=O)N2)N1CCOCC1 (stereo not shown) [Example 74, 3-(6-chloro-2-(3-fluoropyridin-2-yl)-3,4-dihydro-2H-chromen-7-yl)-5-cyclopropyl-7-(morpholin-4-ylcarbonyl)-3,4-dihydropyrido[4,3-d]pyrimidin-2(1H)-one] | 104%
CC(C)(O)c1cc2c(c(C3CC3)n1)CN(c1cc3c(cc1Cl)CCC(c1ncccc1F)O3)C(=O)N2 (stereo not shown) [Example 75, 3-(6-chloro-2-(3-fluoropyridin-2-yl)-3,4-dihydro-2H-chromen-7-yl)-5-cyclopropyl-7-(2-hydroxypropan-2-yl)-3,4-dihydropyrido[4,3-d]pyrimidin-2(1H)-one] | 103%
O=C(NC1CC1)c1cc2c(c(C3CC3)n1)CN(c1cc3c(cc1Cl)CCC(c1ncccc1F)O3)C(=O)N2 (stereo not shown) [Example 76, 3-(6-chloro-2-(3-fluoropyridin-2-yl)-3,4-dihydro-2H-chromen-7-yl)-N,5-dicyclopropyl-2-oxo-1,2,3,4-tetrahydropyrido[4,3-d]pyrimidine-7-carboxamide] | 105%
O=C1Nc2cncc(C(F)(F)F)c2CN1c1cc2c(cc1Cl)CCC(c1ncccc1F)O2 (stereo not shown) [Example 78, 3-(6-chloro-2-(3-fluoropyridin-2-yl)-3,4-dihydro-2H-chromen-7-yl)-5-(trifluoromethyl)-3,4-dihydropyrido[3,4-d]pyrimidin-2(1H)-one] | 105%
Cc1nc(C)c2c(c1Cl)CN(c1cc3c(cc1Cl)CCC(c1ncccc1F)O3)C(=O)N2 (stereo not shown) [Example 79, 5-chloro-3-(6-chloro-2-(3-fluoropyridin-2-yl)-3,4-dihydro-2H-chromen-7-yl)-6,8-dimethyl-3,4-dihydropyrido[3,4-d]pyrimidin-2(1H)-one] | 98%
COc1ncc(Cl)c2c1NC(=O)N(c1cc3c(cc1Cl)CCC(c1ncccc1F)O3)C2 (stereo not shown) [Example 80, 5-chloro-3-(6-chloro-2-(3-fluoropyridin-2-yl)-3,4-dihydro-2H-chromen-7-yl)-8-methoxy-3,4-dihydropyrido[3,4-d]pyrimidin-2(1H)-one] | 107%
O=C1Nc2c(N3CCOCC3)ncc(Cl)c2CN1c1cc2c(cc1Cl)CCC(c1ncccc1F)O2 (stereo not shown) [Example 81, 5-chloro-3-(6-chloro-2-(3-fluoropyridin-2-yl)-3,4-dihydro-2H-chromen-7-yl)-8-(morpholin-4-yl)-3,4-dihydropyrido[3,4-d]pyrimidin-2(1H)-one] | 102%
Cc1cc2c(cc1N1Cc3c(Cl)cc(C(=O)NC4CC4)cc3NC1=O)OC(c1ncccc1F)CC2 (stereo not shown) [Example 82, 5-chloro-N-cyclopropyl-3-(2-(3-fluoropyridin-2-yl)-6-methyl-3,4-dihydro-2H-chromen-7-yl)-2-oxo-1,2,3,4-tetrahydroquinazoline-7-carboxamide] | 101%
Cc1cc2c(c(C3CC3)n1)CN(c1cc3c(cc1C)CCC(c1ncccc1F)O3)C(=O)N2 (stereo not shown) [Example 83, 5-cyclopropyl-3-(2-(3-fluoropyridin-2-yl)-6-methyl-3,4-dihydro-2H-chromen-7-yl)-7-methyl-3,4-dihydropyrido[4,3-d]pyrimidin-2(1H)-one] | 96%
CC(C)(O)c1nccc2c1CN(c1cc3c(cc1Cl)CCC(c1ncccc1F)O3)C(=O)N2 (stereo not shown) [Example 84, 3-(6-chloro-2-(3-fluoropyridin-2-yl)-3,4-dihydro-2H-chromen-7-yl)-5-(2-hydroxypropan-2-yl)-3,4-dihydropyrido[4,3-d]pyrimidin-2(1H)-one] | 106%
O=C1Nc2cc(-c3ncco3)nc(C3CC3)c2CN1c1cc2c(cc1Cl)CCC(c1ncccc1F)O2 (stereo not shown) [Example 85, 3-(6-chloro-2-(3-fluoropyridin-2-yl)-3,4-dihydro-2H-chromen-7-yl)-5-cyclopropyl-7-(1,3-oxazol-2-yl)-3,4-dihydropyrido[4,3-d]pyrimidin-2(1H)-one] | 102%
O=C1CCCN1c1cc2c(c(C3CC3)n1)CN(c1cc3c(cc1Cl)CCC(c1ncccc1F)O3)C(=O)N2 (stereo not shown) [Example 86, 3-(6-chloro-2-(3-fluoropyridin-2-yl)-3,4-dihydro-2H-chromen-7-yl)-5-cyclopropyl-7-(2-oxopyrrolidin-1-yl)-3,4-dihydropyrido[4,3-d]pyrimidin-2(1H)-one] | 108%
Cc1cc2c(cc1N1Cc3c(C(F)(F)F)ncc(Br)c3NC1=O)OC(c1ncccc1F)CC2 (stereo not shown) [Example 87, 8-bromo-3-(2-(3-fluoropyridin-2-yl)-6-methyl-3,4-dihydro-2H-chromen-7-yl)-5-(trifluoromethyl)-3,4-dihydropyrido[4,3-d]pyrimidin-2(1H)-one] | 118%
Cc1cc2c(cc1N1Cc3c(F)cncc3NC1=O)OC(c1ncccc1F)CC2 (stereo not shown) [Example 88, 5-fluoro-3-(2-(3-fluoropyridin-2-yl)-6-methyl-3,4-dihydro-2H-chromen-7-yl)-3,4-dihydropyrido[3,4-d]pyrimidin-2(1H)-one] | 96%
COC(=O)/C=C/c1cc2c(c(C3CC3)n1)CN(c1cc3c(cc1C)CCC(c1ncccc1F)O3)C(=O)N2 (stereo not shown) [Example 89, methyl (2E)-3-(5-cyclopropyl-3-(2-(3-fluoropyridin-2-yl)-6-methyl-3,4-dihydro-2H-chromen-7-yl)-2-oxo-1,2,3,4-tetrahydropyrido[4,3-d]pyrimidin-7-yl)acrylate] | 98%
O=C1Nc2cc(C3CC3)nc(C3CC3)c2CN1c1ccc2c(c1)OC(c1ncccc1F)CC2 (stereo not shown) [Example 90, 5,7-dicyclopropyl-3-(2-(3-fluoropyridin-2-yl)-3,4-dihydro-2H-chromen-7-yl)-3,4-dihydropyrido[4,3-d]pyrimidin-2(1H)-one] | 118%
Cc1cc2c(cc1N1Cc3c(cc(/C=C/C(=O)O)nc3C3CC3)NC1=O)OC(c1ncccc1F)CC2 (stereo not shown) [Example 91, (2E)-3-(5-cyclopropyl-3-(2-(3-fluoropyridin-2-yl)-6-methyl-3,4-dihydro-2H-chromen-7-yl)-2-oxo-1,2,3,4-tetrahydropyrido[4,3-d]pyrimidin-7-yl)acrylic acid] | 109%
